Data reported in US12138254B2, “Chronic nightly dosing of lasmiditan for migraine prevention” (Eli Lilly and Company, priority 2018, dated 2024).
Entries after “also recorded” stand apart in the source; their conditions may differ.

Test system: simulated driving performance
Assay: Computer-based driving simulator study in healthy volunteers

## CN1CCC(C(=O)c2cccc(NC(=O)c3c(F)cc(F)cc3F)n2)CC1 [Lasmiditan, 2,4,6-trifluoro-N-[6-(1-methyl-piperidin-4-ylcarbonyl)-pyridin-2-yl]-benzamide]
After dosing
  time by which impaired simulated driving performance resolved: ≤ 8 h
All doses, acute treatment
  driving impairment / simulated driving performance: impair simulated driving performance in a dose-dependent manner; also recorded: associated with driving impairment
